Test results: US4906663A, “6-fluoroprostaglandins” (Asahi Glass Company, Ltd., priority 1987, dated 1990)
≈ marks a conversion by molar mass, not a printed value. Read-outs that look alike come from different tables or passages of the source.

What was measured:
platelet aggregation [1] = assay: In vitro inhibition of ADP (1 μM)-induced platelet aggregation (turbidimetric method of Born, platelet-rich plasma); assay type: cell-based, guinea-pigs of Hartley strain; conditions: guinea-pig PRP, preincubated 37° C. for 10 minutes; for IC50: Cavia porcellus, Platelet
Method: (§1) Platelet aggregation study was carried out by a tarbidimetric method of Born (G. V. R. Born; Nature, 194, 927, 1962) using an aggregometer. Citrated blood obtained from guinea-pigs of Hartley strain was centrifuged at 120 g for 10 minutes and the supernatant, Platelet-rich plasma (PRP), was separated. In in vitro experiments, PRP was preincubated with test compounds at 37° C. for 10 minutes and then aggregation was induced by adding ADP (1 μM). Extent of aggregation was estimated with maximum changes of light transmittance within 5 minutes after adding ADP. Inhibitory potencies of compounds were expressed with the concentration showing 50% inhibition of platelet aggregation (IC50). In ex vivo experiments, compounds were orally given to guinea-pigs. Blood was taken 5 hours after the administration of compounds, and platelet aggregation study was performed as described in in vitro experiments. Potencies of compnds was expressed with minimum dose showing significant inhibition (MED).

[2] = system: gastric ulcer (HCl-ethanol induced); assay: Inhibitory effect on gastric ulcer induced by HCl-ethanol (lesion index); assay type: in vivo, rats (male, Wister strain); conditions: Rattus norvegicus; oral, 30 minutes before 0.4N HCl-50% ethanol (1 ml); over night-fasted rats; read-out: ED50 (dose required for 50% inhibition of lesion index)
Method: Gastric ulcer was induced by an oral administration of 0.4N HCl-50% ethanol (1 ml) to over night-fasted rats (male, Wister strain). One hour after HCl-ethanol administration, rats were sacrificed and their stomachs were isolated. Isolated stomachs were inflated with saline and fixed with 5% formalin. After fixation, the stomach was cut open along greater curvature and maximum length of each lesion was measured. The sum of lesion length was defined as the lesion index. Compounds were given orally 30 minutes before administration of HCl-ethanol. Potencies of compounds were expressed with ED50, the dose required for 50% inhibition of lesion index.

[3] = system: depression in amplitude of ST-segment on ECG (vasopressin); assay: Antianginal effect: vasopressin-induced depression in amplitude of ST-segment on ECG; assay type: in vivo, male rats of Donryu strain; conditions: Rattus norvegicus, anesthetized rats
Method: Antianginal effect of compounds was evaluated in male rats of Donryu strain according to Hatano et al. (N. Hatano et al.; Pharmacometrics, 19, 311, 1980) Vasopressin (0.2 IU/kg) was injected into femoral vein of anesthetized rats, and the depression in amplitude of ST-segment on ECG was measured at 30 second-intervals for 5 minutes after the vasopressin injection. Test compounds were intravenously injected 2 minutes before or orally given 30 minutes before the vasopressin injection. Data were analysed with two dimension analysis between the control and treated groups, and potencies of the compounds were expressed by MED.

platelet aggregation [4] = assay: Ex vivo inhibition of ADP-induced platelet aggregation 5 hours after oral administration; assay type: in vivo; conditions: Cavia porcellus, blood taken 5 hours after administration, guinea-pigs, read-out: Ex vivo MED (minimum dose showing significant inhibition of platelet aggregation)
Method: as §1

[5] = iv, I.V., 2 minutes before vasopressin 0.2 IU/kg, read-out: I.V. MED (antianginal effect)
[6] = po, P.O., 30 minutes before vasopressin 0.2 IU/kg, read-out: P.O. MED (antianginal effect)

| Compound | IC50 (platelet aggregation [1]) [µg/mL] | ED50 [2] [µg/kg] | minimal effective dose [3, 5] [µg/kg] | minimal effective dose [3, 6] [µg/kg] | minimal effective dose (platelet aggregation [4]) [µg/kg] | In Vitro IC50 (platelet aggregation) (platelet aggregation [1]) [µg/mL] |
| --- | --- | --- | --- | --- | --- | --- |
| CCCCC[C@H](O)/C=C/[C@H]1[C@H](O)CC(=O)[C@@H]1/C=C(/F)CCCCC(=O)O [APG - 2, (6E)-Δ^6-6-fluoro-PGE1] | 0.52 (≈ 1.4 µM) |  |  |  |  |  |
| CCCCC[C@H](O)/C=C/[C@H]1[C@H](O)CC(=O)[C@@H]1C/C(F)=C\CCCC(=O)OC [APG - 7, 6-fluoro-PGE2 methyl ester] | 0.655 (≈ 1.7 µM) |  |  |  |  |  |
| CCCC[C@H](C)C[C@H](O)/C=C/[C@H]1[C@H](O)CC(=O)[C@@H]1C/C(F)=C\CCCC(=O)O [APG - 27, (17S)-17,20-dimethyl-6-fluoro-PGE2] | 0.0427 (≈ 0.107 µM) | 3.4 |  |  |  |  |
| CCCCC[C@H](O)/C=C/[C@H]1[C@H](O)CC(=O)[C@@H]1CC(F)CCCCC(=O)O (stereo partly drawn) [APG - 21, 6-fluoro-PGE1] | 0.1 (≈ 0.268 µM) |  |  |  |  |  |
| CCCCC[C@H](O)/C=C/[C@H]1[C@H](O)CC(=O)[C@@H]1C/C(F)=C\CCCC(=O)O [APG - 5, 6-fluoro-PGE2] | 0.49 (≈ 1.32 µM) |  |  |  |  |  |
| CCCC[C@H](C)C[C@H](O)/C=C/[C@H]1[C@H](O)CC(=O)[C@H]1CC(F)CCCCC(=O)O (single isomer, unassigned; ent-17) [APG - 25] | 0.0127 (≈ 0.0317 µM) |  | 1 | 0.1 | 3000 |  |
| CCCC[C@H](C)C[C@H](O)/C=C/[C@H]1[C@H](O)CC(=O)[C@H]1CC(F)CC/C=C/C(=O)O (stereo partly drawn) [APG - 30, (17S)-8-ent-Δ^2-17,20-dimethyl-6-fuoro-PGE1] | 0.00105 (≈ 0.00263 µM) |  |  |  | 1000 |  |
| CCCCCC(O)C=CC1C(O)CC(=O)C1CC(F)CCCCC(=O)O (single isomer, unassigned; ent-6) [APG - 23, 8-ent-6-fluoro-PGE1] |  |  |  |  |  | 0.0145 |
| CCCC[C@H](C)C[C@H](O)/C=C/[C@H]1[C@H](O)CC(=O)[C@@H]1CC(F)CCCCC(=O)O (stereo partly drawn) [APG - 24, (17S)-17,20-dimethyl-6-fluoro-PGE1] | 0.0059 (≈ 0.0147 µM) |  | 10 | 0.1 | 300 |  |
| CCCC[C@H](C)C[C@H](O)/C=C/[C@H]1[C@H](O)CC(=O)[C@@H]1CC(F)CC/C=C/C(=O)O (stereo partly drawn) [APG - 29, Δ^2-(17S)-17,20-dimethyl-6-fluoro-PGE1] | 0.00233 (≈ 0.00585 µM) | 1.8 |  | 0.1 | 100 |  |
